Our source for the IC50 values is patent US20230147257A1 (DONG-A ST CO., LTD., priority 2020, published 2023).

The assay deals with T1, AhR (Homo sapiens, UniProt P35869).
T1 construct: host or cells: HepG2
T1 sequence (P35869 11-848): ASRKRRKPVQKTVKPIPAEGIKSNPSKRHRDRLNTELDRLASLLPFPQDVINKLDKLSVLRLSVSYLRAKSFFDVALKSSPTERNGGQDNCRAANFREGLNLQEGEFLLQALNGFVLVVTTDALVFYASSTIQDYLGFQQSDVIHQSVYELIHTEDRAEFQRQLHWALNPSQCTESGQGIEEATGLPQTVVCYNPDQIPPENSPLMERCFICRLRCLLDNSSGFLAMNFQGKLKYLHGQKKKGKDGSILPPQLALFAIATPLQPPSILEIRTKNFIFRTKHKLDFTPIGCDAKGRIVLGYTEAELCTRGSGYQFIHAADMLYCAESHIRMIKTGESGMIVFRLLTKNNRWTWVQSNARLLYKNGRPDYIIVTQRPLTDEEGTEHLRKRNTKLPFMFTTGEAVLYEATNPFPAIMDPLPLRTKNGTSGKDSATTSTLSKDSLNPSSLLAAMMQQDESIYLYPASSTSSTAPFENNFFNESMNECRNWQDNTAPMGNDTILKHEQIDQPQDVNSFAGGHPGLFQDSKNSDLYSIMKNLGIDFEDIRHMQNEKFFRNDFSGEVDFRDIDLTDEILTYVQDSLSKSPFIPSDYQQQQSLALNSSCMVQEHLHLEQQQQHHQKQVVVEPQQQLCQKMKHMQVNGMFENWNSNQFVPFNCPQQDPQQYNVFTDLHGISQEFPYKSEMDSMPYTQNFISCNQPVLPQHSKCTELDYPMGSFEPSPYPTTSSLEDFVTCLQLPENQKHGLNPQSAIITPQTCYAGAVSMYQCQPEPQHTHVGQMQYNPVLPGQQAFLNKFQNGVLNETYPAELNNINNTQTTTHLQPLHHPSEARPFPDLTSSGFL
Description: In vitro assay 1: XRE-luciferase reporter assay, antagonism in human cell line (HepG2). Conditions: HepG2 XRE-luciferase, 6 hours, read-out: Assay 1: AhR-Luc Human Antagonism (IC50). Format: cell-based. An excerpt: In Vitro XRE-Luciferase Reporter Assay (In Vitro Assay 1, 2, 3)
AhR activation leads the induction of target gene expression such as CYP1A1 and CYP1B1 by AhR binding to AhR-responsive DNA elements also known as xenobiotics responsive elements (XRE). The assay for measuring AhR activity herein is the luciferase assay using cell lines transfected with luciferase reporter plasmid containing XREs at the upstream of the reporter gene. Cells transfected with XRE-luciferase reporter (XRE-Luc) plasmid drive luciferase activity reflecting activation and inhibition of AhR in the cells. In addition to transfection with XRE-reporter vector, cells were co-transfected with Nano-luciferase reporter gene construct (Nano-Luc) containing constitutively active promoter as internal control. Kynurenine (an endogenous AhR agonist) was used to stimulate cells to test antagonistic properties of the compounds. The half-maximal inhibitory concentration (IC50) or half-maximal effective concentration (EC50) value was calculated using nonlinear regression (four parameters) with Prism8.0 software (GraphPad).
In Vitro Assay 1: Antagonism in Human Cell Line
HepG2 (human hepatoma cell line) cell line with a XRE-luciferase reporter either transiently or stably (Invivogen) were plated in complete medium and incubated at 37° C. in a CO2 incubator. After 24 hours, cells were treated with kynurenine (50* or 200 μM) alone (negative control) or with test compounds for 6 hours. Luciferase activity was measured with a commercial kit such as the Promega Luciferase kit or other reagents for measuring luciferase activity. Relative luciferase activity (Firefly/Nano-Luc) was used to calculate IC50 values. The relative luciferase activity was further normalized with kynurenine alone group as the maximum control and the vehicle group as the minimum control. (IC50 values are grouped as A, B, C and D, whereby A: IC50<0.01 μM; B: 0.01<IC50<0.1 μM; C: 0.1<IC50<1.0 μM; D: IC50>1.0 μM)

Setting [1] is: cells treated with kynurenine 200 μM (no *).
Setting [2] is: cells treated with kynurenine 50 μM (*).

Structures can show the parent of a compound that is named as a salt. Where two headings read alike, the source gives them in different places.

In the case of `CC(C)(O)Cn1cnc2c(-c3cccnc3)nc(-c3ccc(C(F)(F)F)cc3)cc2c1=O` [Example 39, 3-(2-hydroxy-2-methylpropyl)-8-(pyridin-3-yl)-6-(4-(trifluoromethyl)phenyl)pyrido[3,4-d]pyrimidin-4(3H)-one], the IC50 under setting [1] is above 1000 nM.
As to `Cn1cc(-c2nc(-c3ccc(Cl)cc3)cc3c(=O)n([C@H]4CCCC[C@H]4O)cnc23)cn1` [Example 20, 6-(4-chlorophenyl)-3-((1S,2R)-2-hydroxycyclohexyl)-8-(1-methyl-1H-pyrazol-4-yl)pyrido[3,4-d]pyrimidin-4(3H)-one], the IC50 under setting [1] was above 1000 nM.
Consider `CC(C(=O)O)n1cnc2c(-c3cccnc3)nc(-c3ccc(Cl)cc3)cc2c1=O` (stereo not drawn) [Example 83, 2-(6-(4-chlorophenyl)-4-oxo-8-(pyridin-3-yl)pyrido[3,4-d]pyrimidin-3(4H)-yl)propanoic acid, 2,2,2-trifluoroacetic acid salt], for which the IC50 under setting [1] lay within 100 to 1000 nM.
With `O=c1c2cc(-c3ccc(N4CCOCC4)cc3)nc(-c3cccnc3)c2ncn1C(CO)CO` [Example 80, 3-(1,3-dihydroxypropan-2-yl)-6-(4-morpholinophenyl)-8-(pyridin-3-yl)pyrido[3,4-d]pyrimidin-4(3H)-one], the IC50 under setting [1] was below 10 nM.
Still for that read-out and setting: the value for `O=c1c2cc(-c3ccc(C(F)(F)F)cc3)nc(-c3cccnc3)c2ncn1CC(O)C(F)(F)F` (stereo not drawn) [Example 25, 8-(pyridin-3-yl)-3-(3,3,3-trifluoro-2-hydroxypropyl)-6-(4-(trifluoromethyl)phenyl)pyrido[3,4-d]pyrimidin-4(3H)-one] was above 1000 nM; that for `Cn1cc(-c2nc(-c3ccc(Cl)cc3)cc3c(=O)n(CC(O)C(F)(F)F)cnc23)cn1` (stereo not drawn) [Example 23, 6-(4-chlorophenyl)-8-(1-methyl-1H-pyrazol-4-yl)-3-(3,3,3-trifluoro-2-hydroxypropyl)pyrido[3,4-d]pyrimidin-4(3H)-one] was below 10 nM.
On to `O=c1c2cc(-c3ccc(Cl)cc3)nc(-c3cccnc3)c2ncn1[C@@H]1CC[C@H](O)C1` [Example 28, 6-(4-chlorophenyl)-3-((1R,3S)-3-hydroxycyclopentyl)-8-(pyridin-3-yl)pyrido[3,4-d]pyrimidin-4(3H)-one], for which the concentration for half-maximal inhibition (IC50) under setting [1] was below 10 nM.
As to `CC(CO)n1cnc2c(-c3cccnc3)nc(-c3ccc(-c4ccc(Cl)cc4)cc3)cc2c1=O` (stereo not drawn) [Example 74, 6-(4′-chloro-[1,1′-biphenyl]-4-yl)-3-(1-hydroxypropan-2-yl)-8-(pyridin-3-yl)pyrido[3,4-d]pyrimidin-4(3H)-one], the IC50 under setting [1] is below 10 nM.
The same measure, in the same setting: the value for `CC(CN)n1cnc2c(-c3cccnc3)nc(-c3ccc(Cl)cc3)cc2c1=O` (stereo not drawn) [Example 87, 3-(1-aminopropan-2-yl)-6-(4-chlorophenyl)-8-(pyridin-3-yl)pyrido[3,4-d]pyrimidin-4(3H)-one] was below 10 nM; that for `CN1CCN(c2ccc(-c3cc4c(=O)n(CC(O)CO)cnc4c(-c4cccnc4)n3)cc2)CC1` (stereo not drawn) [Example 68, 3-(2,3-dihydroxypropyl)-6-(4-(4-methylpiperazin-1-yl)phenyl)-8-(pyridin-3-yl)pyrido[3,4-d]pyrimidin-4(3H)-one] was above 1000 nM; that for `O=c1c2cc(-c3ccc(C(F)(F)F)cc3)nc(-c3cccnc3)c2ncn1C(CO)CO` [Example 69, 3-(1,3-dihydroxypropan-2-yl)-8-(pyridin-3-yl)-6-(4-(trifluoromethyl)phenyl)pyrido[3,4-d]pyrimidin-4(3H)-one] was below 10 nM.
Regarding `CC(CN)n1cnc2c(-c3cccnc3)nc(-c3ccc(N4CCOCC4)cc3)cc2c1=O` (stereo not drawn) [Example 90, 3-(1-aminopropan-2-yl)-6-(4-morpholinophenyl)-8-(pyridin-3-yl)pyrido[3,4-d]pyrimidin-4(3H)-one], the IC50 under setting [1] fell in the range of 100 to 1000 nM.
Still for that read-out and setting: the value for `O=c1c2cc(-c3ccc(N4CCOCC4)cc3)nc(-c3cccnc3)c2ncn1C1CCS(=O)(=O)CC1` [Example 78, 3-(1,1-dioxidotetrahydro-2H-thiopyran-4-yl)-6-(4-morpholinophenyl)-8-(pyridin-3-yl)pyrido[3,4-d]pyrimidin-4(3H)-one] was below 10 nM; that for `CS(=O)(=O)CCn1cnc2c(-c3cccnc3)nc(-c3ccc(N4CCOCC4)cc3)cc2c1=O` [Example 79, 3-(2-(methylsulfonyl)ethyl)-6-(4-morpholinophenyl)-8-(pyridin-3-yl)pyrido[3,4-d]pyrimidin-4(3H)-one] was below 10 nM.
As for `CC(CO)n1cnc2c(-c3ccc(Cl)cc3)nc(-c3cccnc3)cc2c1=O` (stereo not drawn) [Example 5, 8-(4-chlorophenyl)-3-(1-hydroxypropan-2-yl)-6-(pyridin-3-yl)pyrido[3,4-d]pyrimidin-4(3H)-one], the IC50 under setting [2] is above 1000 nM.
On to `O=c1c2cc(-c3ccc(N4CCOCC4)cc3)nc(-c3cccnc3)c2ncn1[C@@H]1CC[C@H](O)C1` [Example 73, 3-((1R,3S)-3-hydroxycyclopentyl)-6-(4-morpholinophenyl)-8-(pyridin-3-yl)pyrido[3,4-d]pyrimidin-4(3H)-one], for which the IC50 under setting [1] is below 10 nM.
Take `Cn1cc(-c2cc3c(=O)n([C@H]4CC[C@H](O)CC4)cnc3c(-c3cnn(C)c3)n2)cn1` [Example 9, 3-((1r,4r)-4-hydroxycyclohexyl)-6,8-bis(1-methyl-1H-pyrazol-4-yl)pyrido[3,4-d]pyrimidin-4(3H)-one]: the half-inhibitory concentration (IC50) under setting [2] fell in the range of 100 to 1000 nM.
`CC(=O)OC(C)(C)Cn1cnc2c(-c3cccnc3)nc(-c3ccc(C(F)(F)F)cc3)cc2c1=O` [Example 37, 2-methyl-1-(4-oxo-8-(pyridin-3-yl)-6-(4-(trifluoromethyl)phenyl)pyrido[3,4-d]pyrimidin-3(4H)-yl)propan-2-yl acetate]: the IC50 under setting [1] is below 10 nM.
Regarding `Cn1cc(-c2nc(-c3ccc(Cl)cc3)cc3c(=O)n([C@@H]4CC[C@H](O)C4)cnc23)cn1` [Example 30, 6-(4-chlorophenyl)-3-((1R,3S)-3-hydroxycyclopentyl)-8-(1-methyl-1H-pyrazol-4-yl)pyrido[3,4-d]pyrimidin-4(3H)-one], the 50% inhibitory concentration (IC50) under setting [1] is 10 to 100 nM.
Turning to `O=c1c2cc(-c3cnc(C(F)(F)F)nc3)nc(-c3cccnc3)c2ncn1[C@@H]1CC[C@H](O)C1` [Example 72, 3-((1R,3S)-3-hydroxycyclopentyl)-8-(pyridin-3-yl)-6-(2-(trifluoromethyl)pyrimidin-5-yl)pyrido[3,4-d]pyrimidin-4(3H)-one, TFA salt], the IC50 under setting [1] was in the range of 10 to 100 nM.
As for `CC(=O)OCC(C)n1cnc2c(-c3ccc(Cl)cc3)nc(Cl)cc2c1=O` (stereo not drawn) [Example 7, 2-(6-chloro-8-(4-chlorophenyl)-4-oxopyrido[3,4-d]pyrimidin-3(4H)-yl)propyl acetate], the IC50 under setting [2] was above 1000 nM.
As to `O=c1c2cc(-c3ccc(Cl)cc3)nc(-c3cccnc3)c2ncn1C1CCCC(O)C1` (stereo not drawn) [Example 63, 6-(4-chlorophenyl)-3-(3-hydroxycyclohexyl)-8-(pyridin-3-yl)pyrido[3,4-d]pyrimidin-4(3H)-one], the IC50 under setting [1] is below 10 nM.
As to `O=c1c2cc(-c3ccc(C(F)(F)F)cc3)nc(-c3cccnc3)c2ncn1[C@H]1CCCC[C@H]1O` [Example 15, 3-((1S,2R)-2-hydroxycyclohexyl)-8-(pyridin-3-yl)-6-(4-(trifluoromethyl)phenyl)pyrido[3,4-d]pyrimidin-4(3H)-one], under setting [1], the IC50 was above 1000 nM.
On to `O=c1c2cc(-c3ccc(C(F)(F)F)cc3)nc(-c3cccnc3)c2ncn1C[C@@H](O)CO` [Example 81, (R)-3-(2,3-dihydroxypropyl)-8-(pyridin-3-yl)-6-(4-(trifluoromethyl)phenyl)pyrido[3,4-d]pyrimidin-4(3H)-one], for which the IC50 under setting [1] is below 10 nM.
